According to patent US9480695B2, “Methods for inducing orexin neurons and agent for treating narcolepsy or eating disorder” (THE UNIVERSITY OF TOKYO, priority 2011, dated 2016):

Tests used:
Format in all cases: cell-based
[1] = system: Mouse ES cells (J1 strain); assay: Hcrt expression with ManNAc plus Sirt inhibitor or Ogt inhibitor, neural differentiation from mouse ES cell, RT-PCR; conditions: ManNAc 1.0 mM from 0th day, EX-527 50 nM on 7th day, collected 10th day; FIG. 8
Protocol: According to the same manner as that described in Example 1, mouse ES cells (J1 strain) were cultured for 10 days for differentiation induction into a nerve cell. A protocol of inducing differentiation into a nerve cell is shown in the upper column of FIG. 11. From the initiation of differentiation culturing (0th day), ManNAc was added to a neural differentiation medium so that the concentration became 1.0 mM, and the medium was exchanged on 4th and 7th days of differentiation culturing. In addition, from 4th day of differentiation culturing, 5 nM recombinant human BMP4 (Wako) was added. On 7th day of differentiation culturing, EX-527 (SIGMA-ALDRICH) was added to a neural differentiation medium so that the concentration became 50 nM or BADGP (SIGMA-ALDRICH) was added to a neural differentiation medium so that the concentration became 1 or 5 mM, and on 10th day of differentiation culturing, cells were collected and subjected to RT-PCR. The conditions of RT-PCR are the same as those of Example 1.

[2] = system: human iPS cell strain 201B7; assay: Hcrt expression with ManNAc plus Sirt inhibitor and Ogt inhibitor, neural differentiation from human iPS cell, RT-PCR; conditions: ManNAc 1.0 mM from 0th day, EX-527 50 nM and/or BADGP 5 mM on 14th day, collected 20th day; FIG. 10
Protocol: A human iPS cell strain 201B7 (HSP0001) was obtained from Riken BioResource Center via National BioResource Project (MEXT, Japan). The human iPS cell was maintained on a feeder layer of a mitomycin C-treated STO/Neo resistant/LIF (SNL) feeder cell in a primate ES medium (ReproCELL) complemented with 5 ng/mL recombinant human bFGF (Wako). The human iPS cell was co-cultured with PA6 for 20 days, for differentiation induction into a nerve with a SIDA and BMP4 system. From 7th day, 5 nM BMP4 was complemented. A detailed protocol of differentiation induction into a nerve cell is shown in the lower column of FIG. 11. From the initiation of differentiation culturing (0th day), ManNAc was added to a neural differentiation medium so that the concentration became 1.0 mM, and on 7th, 10th and 14th days of differentiation culturing, the medium was exchanged. In addition, from 7th day of differentiation culturing, 5 nM recombinant human BMP4 (Wako) was added. On 14th day of differentiation culturing, EX-527 (SIGMA-ALDRICH) was added to a neural differentiation medium so that the concentration became 50 nM, or BADGP (SIGMA-ALDRICH) was added to a neural differentiation medium so that the concentration became 5 mM, and on 20th day of differentiation culturing, cells were collected and subjected to RT-PCR. The conditions of RT-PCR are the same as those of Example 1.

[3] = system: Mouse ES cells (J1 strain); assay: Induction of Hcrt expression in neural differentiation from mouse ES cells, SDIA differentiation culture system, RT-PCR; conditions: for Expression of Hcrt with changed time of addition: 1.0 mM, addition time varied, FIG. 3; for Expression of an orexin gene (Hcrt): added from initiation of differentiation culturing at 0.2 and 1.0 mM, cells collected on 10th day, FIG. 2
Protocol: Mouse ES cells (J1 strain) which had been maintained in a medium for an ES cell [DMEM (Wako) added with 15% FBS (Biowest), 1 mM sodium pyruvate (Invitrogen), […] (Invitrogen), 2 mM L-glutamine (Invitrogen), 1 mM non essential amino acid (Invitrogen), 50 U/ml penicillin/50 μg/ml streptomycin (Invitrogen), 2000 U leukemia inhibitory factor (Chemicon, CA)] were seeded on a 10 cm culture dish so that the cell count became 1×10^5 cells per culture dish on which PA6 stromal cells had been seeded in advance, and differentiation induction was performed in a medium for neural differentiation [Glasgow MEM (Invitrogen) added with 10% KSR (Invitrogen), […] (Invitrogen), 1 mM non essential amino acid (Invitrogen), 50 U/ml penicillin/50 μg/ml streptomycin (Invitrogen)] for 10 days. On 4th and 7th days of differentiation culturing, the medium was exchanged. In addition, from 4th day of differentiation culturing, 5 nM recombinant human BMP4 (Wako) was added (FIG. 1). On 10th day of differentiation culturing, cells were collected and pelletized by a centrifugation operation to remove the culture medium. Thereafter, the pellets were immediately frozen in liquid nitrogen and stored at −80° C. until use.
The total RNA was extracted from the collected cells using RNeasy plus Mini Kit (QIAGEN). Then, a reverse transcription reaction was performed in a reaction liquid containing 1 μg of the total RNA, and Oligo (dT) using SuperScript III First Strand Synthesis System (Invitrogen) to synthesize a cDNA.
A PCR reaction was performed on a 10 μl scale, 1 U of LA-Taq DNA Polymerase (Takara) was added to 0.5 μl of a cDNA, 5 μl of 2×GC Buffer I, each 200 μM of dNTP, 1.5 mM MgCl2, and each primer having a final concentration of 0.2 μM, thermal denaturation was performed at 95° C. for 3 minutes, and the reaction was performed under the condition of (30 seconds at 95° C., 30 seconds at 55° C., and 30 seconds at 72° C.)×35 cycles (20 cycles in the case of Actb). The primers used are shown below.
Each PCR product was electrophoresed on a 2% agarose gel, stained with ethidium bromide, and a band was observed by UV irradiation.

[4] = system: Mouse ES cells (J1 strain); assay: Hcrt expression in mouse ES cells, SFEB/gfCDM differentiation culture system, RT-PCR; conditions: 1.0 mM from 7th day of differentiation culturing; cells collected on 25th day; FIG. 5
Protocol: Mouse ES cells (J1 strain) which had been maintained in a medium for an ES cell were seeded on a 96-well low adhering round-bottom culture dish (Nunc) so that the cell count became 10,000 cells per well, and cultured with gfCDM [IMDM/F12 (Invitrogen) added with 5 mg/ml BSA (SIGMA), 450 μM Monothioglycerol (Wako), 1× chemically defined lipid concentrate (Invitrogen), 50 U/ml penicillin/50 μg/ml streptomycin] for 7 days. The cells were cultured in 150 μl of a medium per well. On 7th day of differentiation culturing, the medium was exchanged with a DFK medium [DMEM/F12 (Invitrogen) added with 7 g/1 glucose, 10% KSR, 50 U/ml penicillin/50 μg/ml streptomycin], and on 10th day, half the amount of the medium was exchanged with a DFNB medium [7 g/1 glucose, 1×N2 (Wako), 1×B27 (Invitrogen)] containing 10 ng/ml CNTF. On 13th day of culturing, cells were detached with 0.05% trypsin/EDTA, seeded on a culture dish (Falcon) which had been treated with poly-D-lysine/laminin so that the cell count became 4.8×10^6 cells per 10 cm culture dish, and cultured in a DFNB medium containing 10% FBS, 10 ng/ml CNTF, 50 ng/ml BDNF and 50 ng/ml NT3. The medium was exchanged every 3 days. On 25th day of differentiation culturing, cells were collected and pelletized by a centrifugation operation to remove the culture medium. Thereafter, the pellets were immediately frozen in liquid nitrogen, and stored at −80° C. until use.
The analysis was performed by the same method as that of Example 1.

NC(=O)C1CCCc2c1[nH]c1ccc(Cl)cc21 (stereo not shown) [EX-527, 6-chloro-2,3,4,9-tetrahydro-1H-carbazole-1-carboxamide, reference compound]
Expression of an orexin gene (Hcrt) [1]: expression of Hcrt was recognized | Expression of an orexin gene (Hcrt) [2]: recognized in a ManNAc-added section and an EX-527-added section to the same extent

CC(=O)N[C@H]1C(O)O[C@H](CO)[C@@H](O)[C@@H]1O (stereo partly drawn) [GlcNAc, N-acetyl-D-glucosamine]
Expression of Hcrt with changed time of addition [3]: observed only in a ManNAc-added section | Expression of an orexin gene (Hcrt) [3]: recognized only in a ManNAc-added section

CC(=O)N[C@H]1[C@H]([C@H](O)[C@H](O)CO)OC(O)(C(=O)O)C[C@@H]1O (stereo partly shown) [Neu5Ac, N-acetylneuraminic acid]
Expression of Hcrt with changed time of addition [3]: observed only in a ManNAc-added section | Expression of an orexin gene (Hcrt) [3]: recognized only in a ManNAc-added section | Expression of Hcrt [4]: expression of Hcrt was recognized
